According to patent US10189803B2, “Synthesis of therapeutic and diagnostic drugs centered on regioselective and stereoselective ring opening of aziridinium ions” (ILLINOIS INSTITUTE OF TECHNOLOGY, priority 2008, dated 2019):
Entries after “also recorded” stand apart in the source; their conditions may differ.

Tests used:
Hela cells = test: Iron saturation experiment, Hela cell growth (MTS); assay type: cell-based, Human
Method: Cytotoxicity of the new chelators was measured in the HeLa and HT29 cancer cells and compared to that of the clinically used iron chelators DFO and DTPA. […] The preliminary cell culture experiments were performed to see ifNETA is an effective cytotoxic agent. […] In order to investigate the effect of the chelators on the cellular growth, the Hela cancer cells saturated with Fe(III)-citrate (50 μM) were incubated with each of the chelators (50 μM).
Iron Saturation Experiment Hela Cells were inoculated onto 96-well plates at density of 2,000 per well in 0.1 mL complete medium and incubated for 24 h. […] Control samples containing no ferric citriate were also tested. […] After the incubation, cells proliferation rates were evaluated by MTS assay.

HT29 cells = test: Antiproliferative activity, MTS assay, HT29 cells; assay type: cell-based, Human; conditions: 72 h incubation
Method: Cell culture Human cervix HeLa cell line was obtained from ATCC (Rockville, Md.) and cultured in minimum essential medium (MEM) with L-glutamine (2 mM), Earle's BSS and sodium bicarbonate (1.5 g/L), supplemented with 10% fetal bovine serum (FBS), non-essential amino acids (0.1 mM), sodium pyruvate (1 mM) and antibiotic/antimycotic solution in a humidified atmosphere with 5% CO2 at 37° C. […] Lung fibroblast MRC-5 cell line was obtained from ATCC (Rockville, Md.) and cultured in ATCC formulated EMEM, supplemented with 10% fetal bovine serum (FBS) in a humidified atmosphere with 5% CO2 at 37° C.
(§1) Antiproliferative Activity. Cells were seeded onto 96-well plate at density of 2,000 cells for Hela cells or 5,000 cells for HT29 cells or 5,000 cells for MRC-5 per well in 0.1 mL complete medium and allowed to attach for 24 h. Varying concentrations of the test compounds in the final volume of 0.1 mL complete medium were then added in at least five series dilutions and incubated for 72 h. To measure cell proliferation, the Cell Titer 96 aqueous nonreactive cell proliferation assay (Promega Life Sciences, Madison, Wis.) was used according to the manufacturer's instructions. Briefly, MTS (2 mg/mL) and PMS (0.92 mg/ml) were mixed in a ratio of 20:1. An aliquot (20 μL) of the MTS/PMS mixture was added into each well, and the plate was incubated for 3 h at 37° C. Optical absorbance at 490 nm was then recorded with an enzyme-linked immunosorbent assay (ELISA) microtiter plate reader (Biotek). Each experiment was done at least in triplicate. Antiproliferative activity of the test compounds was expressed as the fraction of optical densities of treated the cells relative to the untreated solvent controls.^31 The data were plotted in GraphPad Prizm 3.0. Nonlinear regression analysis was used to determine IC50 values.
Cell culture. Human cervix HeLa cell line was obtained from ATCC (Rockville, Md.) and cultured in minimum essential medium (MEM) with L-glutamine (2 mM), Earle's BSS and sodium bicarbonate (1.5 g/L), supplemented with 10% fetal bovine serum (FBS), non-essential amino acids (0.1 mM), sodium pyruvate (1 mM) and antibiotic/antimycotic solution in a humidified atmosphere with 5% CO2 at 37° C.
as §1, with “activity.” for “Activity.”, “cells” for “cells or 5,000 cells for MRC-5”, “controls.” for “controls.^31”

[1] = In vitro serum stability of radiolabeled C-NE3TA complexes in human serum (SE-HPLC); assay type: in vitro ADME
Method: C-NE3TA was radiolabeled with ^90Y, ^177Lu, ^203Pb, ^205/6Bi, or ^153Gd as previously described (Chong, H. S.; Milenic, D. E.; Garmestani, K.; Brady, E. D.; Arora, H.; Pfiester, C.; Brechbiel, M. W., Nucl. Med. Biol. 2006, 33, 459-67; Chong H S, Garmestani K, Bryant Jr., L H Milenic D E, Overstreet T, Birch N, Le N, Brady E D, Brechbiel M W. J. Med. Chem. 2006, 49, 2055-2062). In vitro serum stability of the radiolabeled complexes purified via ion-exchange chromatography was performed to determine if C-NE3TA labeled with the radioisotopes remained stable without transchelation or loss of their respective radionuclide in human serum. This was assessed by measuring the transfer of radionuclide from the complex to serum proteins over the course of 11 days.
In vitro stability of the radiolabeled metal complexes. The stability of the purified radiolabeled complexes was evaluated in human serum (Gemini Bioproducts, Woodland, Calif.) for up to 11 days. The serum stability of the radiolabeled complexes was assessed by measuring the transfer of the radionuclide from each complex to serum proteins using SE-HPLC methods. Radiolabeled complexes were diluted to an appropriate volume that allowed for preparation of multiple samples containing 5-10 μCi and were filter-sterilized using a Millex-GV 0.22 μm filter. This stock solution was then mixed with 1400 μL of sterile normal human serum. Aliquots (200 μL) were drawn and separated into individual tubes for subsequent analysis using aseptic technique. The samples were incubated at 37° C., and at designated intervals, subjected to analysis by SE-HPLC. Samples were loaded onto the HPLC and eluted with PBS, pH 7.4 isocratically at 1 mL/min. […] Radioactivity associated with a transfer to serum proteins generally appeared at ˜6 min.

[2] = Biodistribution of 205/6Bi-DEPA in normal athymic mice; assay type: in vivo
Method: Based on the promising data obtained from the AAIII based spectroscopic complexation kinetics and serum stability experiments, the stability of ^205/6Bi-DEPA was further evaluated by performing a biodistribution study in normal athymic mice as described previously. Blood levels and organ uptake of the radiolabeled complexes in mice were measured at five time points, 0.5, 1, 4, 8, and 24 h post-injection of ^205/6Bi-DEPA. […] Radioactivity that was detected in the blood and the organs was less than 2.44% ID/g at all points. At 24 h post injection, the % ID/g in the kidneys and spleen was 0.36±0.03% and 0.39±0.07%, respectively, which was slightly higher than that observed in other organs.

[3] = In vitro serum stability of 205/6Bi-DEPA in human serum (SE-HPLC); assay type: in vitro ADME; parameters: Radiolabled Complex, in vitro serum stability (Table 1): unit not given here; conditions: for Radiolabled Complex, in vitro serum stability (Table 1): 37° C.
Method: The new ligand DEPA was radiolabeled with ^177Lu and ^205/6Bi (a surrogate of ^212Bi and ^213Bi) and the corresponding radiolabeled complexes were evaluated for in vitro serum stability as described previously. For comparison, DOTA was also radiolabeled with ^177Lu. DEPA and DOTA (0.25 M NH4OAc buffer, pH 4.0) was radiolabeled with ^177Lu at 45° C. for 0.5 h to afford ^177Lu-DEPA (Rf=0.6) and ^177Lu-DOTA (Rf=0.4) in the respective radiochemical yield of 90% and 95% as determined by radio-TLC. DEPA (0.25 M NH4OAc buffer, pH 5.0) was successfully radiolabeled with ^205/6Bi at room temperature for 1 h to afford ^205/6Bi-DEPA in 96% yield (radio-TLC). ^177Lu-DOTA, 177Lu-DEPA, and ^205/6Bi-DEPA formed were purified from unbound ^205/6Bi by ion-exchange chromatography using a Chelex-100 column (1 mL volume bed, 100-200 mesh, Na^+ form, Bio-Rad, Richmond, Calif.) eluted with PBS (pH 7.4). In vitro serum stability of the purified radiolabeled complexes was performed to determine if DEPA or DOTA radiolabeled with ^177Lu or ^205/6Bi remained stable without loss of the radionuclide in human serum. This was assessed by measuring the transfer of radionuclide from the complex to serum proteins. […] However, ˜10% of the radioactivity was released from ^177Lu-DOTA over 4 days.
In vitro serum stability of the radiolabeled metal complexes. An aliquot of 3.7 MBq of the purified ^177Lu-labeled ligands was added to 0.5 mL of mouse serum (Sigma, St. Louis, Mo.) and 0.1% NaN3. The resulting mixture was incubated at 37° C. for 96 h. Aliquots of 2 μL of the resulting mixture were analyzed by radio-TLC and HPLC at different time points, 0, 0.25, 0.5, 1, 2, 4, 6, 24, 48, and 96 h of incubation. The stability of purified ^205/6Bi-DEPA was evaluated in human serum (Gemini Bioproducts, Woodland, Calif.) for 14 days by measuring the transfer of the radionuclide from the complex to serum proteins as monitored by SE-HPLC. Radiolabeled complexes were diluted to an appropriate volume that allowed for preparation of multiple samples containing 5-10 μCi and filter-sterilized using a Millex-GV 0.22 μm filter. 140 μL of this stock solution was then mixed with 1400 μL of sterile normal human serum or saline. Aliquots (200 μL) were drawn and separated into individual tubes for subsequent analysis using aseptic technique. The samples were incubated at 37° C., and at designated intervals, subjected to analysis by SE-HPLC. Samples were loaded onto the HPLC and eluted with PBS, pH 7.4 isocratically at 1 mL/min. […] Radioactivity associated with a transfer to serum proteins generally appeared between ˜4.5-8 min.

O=C(O)CN1CCN(CCN(CC(=O)O)CC(=O)O)CCN(CC(=O)O)CC1 [NETA]
anti-proliferative activity compared to DFO (Hela cells; 50 μM, HeLa): three-fold increased anti-proliferative activity compared to DFO | effect on Hela cells saturated with Fe(III)-citrate (in words) (Hela cells; chelator 50 μM, Fe(III)-citrate 50 μM): almost no anti-proliferative activity | HeLa cancer cells died (Hela cells; free ligand 50 μM, no ferric citrate): ~80% | IC50 (HT29 cells): 7.3 ± 1.5 µM

O=C(O)CNC(Cc1ccc([N+](=O)[O-])cc1)CN1CCN(CC(=O)O)CCN(CC(=O)O)CC1.[203Pb] (centres unmarked) [^203Pb-C-NE3TA]
stability in human serum (in words) ([1]; 37° C., up to 11 days): no measurable loss of radioactivity | radionuclide dissociated from the complex ([1]; in 1 day): ~40%

O=C([O-])CN1CCN(CCN(CC(=O)[O-])CC(=O)[O-])CCN(CC(=O)[O-])CCN(CC(=O)[O-])CC1.[Bi+3] [^205/6Bi-DEPA]
bone accumulation of the radioactivity ([2]; 0.5 h): 2.02±0.96 % ID/gm | bone accumulation of the radioactivity ([2]; 1 h): 0.38±0.09 % ID/gm | % ID/g in the kidneys ([2]; 24 h post injection): 0.36±0.03 % ID/g | % ID/g in the spleen ([2]; 24 h post injection): 0.39±0.07 % ID/g | Radioactivity detected in the blood and the organs ([2]; all time points, 0.5-24 h post-injection): less than 2.44 % ID/g | in vivo stability and clearance (in words) ([2]; normal athymic mice): essentially inert in vivo and rapidly cleared from the body | Radiolabled Complex, in vitro serum stability (Table 1) ([3]; 0 h): 100 | Radiolabled Complex, in vitro serum stability (Table 1) ([3]; 0.5 h): 100 | Radiolabled Complex, in vitro serum stability (Table 1) ([3]; 1 h): 100 | Radiolabled Complex, in vitro serum stability (Table 1) ([3]; 2 h): 100 | Radiolabled Complex, in vitro serum stability (Table 1) ([3]; 4 h): 100 | Radiolabled Complex, in vitro serum stability (Table 1) ([3]; 6 h): 100 | Radiolabled Complex, in vitro serum stability (Table 1) ([3]; 24 h): 100 | Radiolabled Complex, in vitro serum stability (Table 1) ([3]; 48 h): 100 | Radiolabled Complex, in vitro serum stability (Table 1) ([3]; 96 h): 100 | Radiolabled Complex, in vitro serum stability (Table 1) ([3]; 120 h): 100 | Radiolabled Complex, in vitro serum stability (Table 1) ([3]; 192 h): 100 | Radiolabled Complex, in vitro serum stability (Table 1) ([3]; 288 h): 100 | Radiolabled Complex, in vitro serum stability (Table 1) ([3]; 336 h): 100 | serum stability of 205/6Bi complex (in words) ([3]; 14 days): no radioactivity was released over 14 days; also recorded: very stable in human serum for 2 weeks
